Source: patent publication US11130769B2 (Prelude Therapeutics Incorporated, priority 2018, dated 2021)

Assays:
MCL-1 = MCL-1 (Homo sapiens (Human), UniProt Q07820); assay: Cell free Mcl-1:Bim affinity assay (fluorescence polarization competition); format: binding; conditions: 15 nM MCL-1, 5 nM FITC-Bim, 1 hour at room temperature; class symbols; read-out: BIM_Ki
Outline: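 Fluorescence polarization competition: 10-point 3-fold compound dilutions displaced 5 nM FITC-Bim from 15 nM MCL-1 over 1 h at room temperature. Ki was derived from the fitted IC50 using the Nikolovska-Coleska equation, with percent inhibition normalized to DMSO and positive controls.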

H929 cells = assay: Cell viability assay (H929 10 FBS); format: cell-based; conditions: Homo sapiens, NCI-H929, 24 hours, read-out: H929_10FBS IC50
Outline: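 ATP-based luminescence (CellTiter-Glo or ATPlite 1 Step, 30-60 min at RT) gauged viability of H929 myeloma cells after 24 h compound treatment at 37 °C. Cells plated at 4000 per well in 10% FBS RPMI 1640 supplemented with pyruvate, HEPES and glucose.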

Sequence of MCL-1 (Q07820 whole entry): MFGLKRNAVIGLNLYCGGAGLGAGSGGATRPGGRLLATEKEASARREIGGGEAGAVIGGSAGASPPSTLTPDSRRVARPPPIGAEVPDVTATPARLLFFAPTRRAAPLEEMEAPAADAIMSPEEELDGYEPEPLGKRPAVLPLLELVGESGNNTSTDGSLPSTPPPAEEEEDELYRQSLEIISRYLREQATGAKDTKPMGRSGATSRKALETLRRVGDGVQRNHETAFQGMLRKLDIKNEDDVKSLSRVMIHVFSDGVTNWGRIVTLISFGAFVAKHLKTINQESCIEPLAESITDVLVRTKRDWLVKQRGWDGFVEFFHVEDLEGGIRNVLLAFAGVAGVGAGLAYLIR

SMILES | Ki (MCL-1) [nM] | IC50 (H929 cells) [nM]
CON(C)CCO[C@H]1/C=C/COC(C)(C)C(=O)NS(=O)(=O)c2ccc3c(c2)N(C[C@@H]2CC[C@H]21)C[C@@]1(CCCc2cc(Cl)ccc21)CO3 [Example 267, (3R,6R,7S,8E,22S)-6′-Chloro-7-[2-[methoxy(methyl)amino]ethoxy]-12,12-dimethyl-15,15-dioxo-spiro[11,20-dioxa-15-thia-1,14-diazatetracyclo[14.7.2.03,6.019,24]pentacosa-8,16,18,24-tetraene-22,1′-tetralin]-13-one] | 1 to 100 | < 1000
CC1(C)OC/C=C/[C@H](OCCN2CCOCC2)[C@@H]2CC[C@H]2CN2C[C@@]3(CCCc4cc(Cl)ccc43)COc3ccc(cc32)S(=O)(=O)NC1=O [Example 270, (3R,6R,7S,8E,22S)-6′-Chloro-12,12-dimethyl-7-(2-morpholinoethoxy)-15,15-dioxo-spiro[11,20-dioxa-15-thia-1,14-diazatetracyclo[14.7.2.03,6.019,24]pentacosa-8,16,18,24-tetraene-22,1′-tetralin]-13-one] | < 1 | < 500
CC1(C)OC/C=C/[C@@H](OCCN2CC(F)(F)C2)[C@@H]2CC[C@H]2CN2C[C@@]3(CCCc4cc(Cl)ccc43)COc3ccc(cc32)S(=O)(=O)NC1=O [Example 272, (3R,6R,7R,8E,22S)-6′-Chloro-7-[2-(3,3-difluoroazetidin-1-yl)ethoxy]-12,12-dimethyl-15,15-dioxo-spiro[11,20-dioxa-15-thia-1,14-diazatetracyclo[14.7.2.03,6.019,24]pentacosa-8,16,18,24-tetraene-22,1′-tetralin]-13-one] | < 1 | < 500
CN(C)CCO[C@@H]1/C=C/COC(C)(C)C(=O)NS(=O)(=O)c2ccc3c(c2)N(C[C@@H]2CC[C@H]21)C[C@@]1(CCCc2cc(Cl)ccc21)CO3 [Example 273, (3R,6R,7R,8E,22S)-6′-Chloro-7-[2-(dimethylamino)ethoxy]-12,12-dimethyl-15,15-dioxo-spiro[11,20-dioxa-15-thia-1,14-diazatetracyclo[14.7.2.03,6.019,24]pentacosa-8,16,18,24-tetraene-22,1′-tetralin]-13-one] | < 1 | < 1000
CN1C/C=C/[C@H](OCCN2CC(F)C2)[C@@H]2CC[C@H]2CN2C[C@@]3(CCCc4cc(Cl)ccc43)COc3ccc(cc32)S(=O)(=O)NC(=O)C1(C)C [Example 275, (3R,6R,7S,8E,22S)-6′-Chloro-7-[2-(3-fluoroazetidin-1-yl)ethoxy]-11,12,12-trimethyl-15,15-dioxo-spiro[20-oxa-15-thia-1,11,14-triazatetracyclo[14.7.2.03,6.019,24]pentacosa-8,16,18,24-tetraene-22,1′-tetralin]-13-one] | 1 to 100 | < 500
CN1C/C=C/[C@H](OCCN2CC[C@@H](F)C2)[C@@H]2CC[C@H]2CN2C[C@@]3(CCCc4cc(Cl)ccc43)COc3ccc(cc32)S(=O)(=O)NC(=O)C1(C)C [Example 276, (3R,6R,7S,8E,22S)-6′-Chloro-7-[2-[(3R)-3-fluoropyrrolidin-1-yl]ethoxy]-11,12,12-trimethyl-15,15-dioxo-spiro[20-oxa-15-thia-1,11,14-triazatetracyclo[14.7.2.03,6.019,24]pentacosa-8,16,18,24-tetraene-22,1′-tetralin]-13-one] | < 1 | < 1000
COCCN1CCCN(CCO[C@H]2/C=C/CN(C)C(C)(C)C(=O)NS(=O)(=O)c3ccc4c(c3)N(C[C@@H]3CC[C@H]32)C[C@@]2(CCCc3cc(Cl)ccc32)CO4)CC1 [Example 277, (3R,6R,7S,8E,22S)-6′-Chloro-7-[2-[4-(2-methoxyethyl)-1,4-diazepan-1-yl]ethoxy]-11,12,12-trimethyl-15,15-dioxo-spiro[20-oxa-15-thia-1,11,14-triazatetracyclo[14.7.2.03,6.019,24]pentacosa-8,16,18,24-tetraene-22,1′-tetralin]-13-one] | 1 to 100 | > 1000
CC1(C)OC/C=C/[C@H](OCC(=O)N2CC(F)(F)C2)[C@@H]2CC[C@H]2CN2C[C@@]3(CCCc4cc(Cl)ccc43)COc3ccc(cc32)S(=O)(=O)NC1=O [Example 278, (3R,6R,7S,8E,22S)-6′-Chloro-7-[2-(3,3-difluoroazetidin-1-yl)-2-oxo-ethoxy]-12,12-dimethyl-15,15-dioxo-spiro[11,20-dioxa-15-thia-1,14-diazatetracyclo[14.7.2.03,6.019,24]pentacosa-8,16,18,24-tetraene-22,1′-tetralin]-13-one] | < 1 | < 500
CC1(C)OC/C=C/[C@H](OCC(=O)N2CCC2)[C@@H]2CC[C@H]2CN2C[C@@]3(CCCc4cc(Cl)ccc43)COc3ccc(cc32)S(=O)(=O)NC1=O [Example 279, (3R,6R,7S,8E,22S)-7-[2-(Azetidin-1-yl)-2-oxo-ethoxy]-6′-chloro-12,12-dimethyl-15,15-dioxo-spiro[11,20-dioxa-15-thia-1,14-diazatetracyclo[14.7.2.03,6.019,24]pentacosa-8,16,18,24-tetraene-22,1′-tetralin]-13-one] | < 1 | < 500

Next, values leading:

Ki (MCL-1) [nM] | IC50 (H929 cells) [nM] | SMILES
< 1 | < 500 | CCN(CC)CCO[C@H]1/C=C/COC(C)(C)C(=O)NS(=O)(=O)c2ccc3c(c2)N(C[C@@H]2CC[C@H]21)C[C@@]1(CCCc2cc(Cl)ccc21)CO3 [Example 268, (3R,6R,7S,8E,22S)-6′-Chloro-7-[2-(diethylamino)ethoxy]-12,12-dimethyl-15,15-dioxo-spiro[11,20-dioxa-15-thia-1,14-diazatetracyclo[14.7.2.03,6.019,24]pentacosa-8,16,18,24-tetraene-22,1′-tetralin]-13-one]
< 1 | < 500 | CC1(C)OC/C=C/[C@H](OCCN2C[C@@H](F)[C@@H](F)C2)[C@@H]2CC[C@H]2CN2C[C@@]3(CCCc4cc(Cl)ccc43)COc3ccc(cc32)S(=O)(=O)NC1=O [Example 269, (3R,6R,7S,8E,22S)-6′-Chloro-7-[2-[(3R,4S)-3,4-difluoropyrrolidin-1-yl]ethoxy]-12,12-dimethyl-15,15-dioxo-spiro[11,20-dioxa-15-thia-1,14-diazatetracyclo[14.7.2.03,6.019,24]pentacosa-8,16,18,24-tetraene-22,1′-tetralin]-13-one]
< 1 | < 500 | CC1(C)OC/C=C/[C@@H](OCCN2CCOCC2)[C@@H]2CC[C@H]2CN2C[C@@]3(CCCc4cc(Cl)ccc43)COc3ccc(cc32)S(=O)(=O)NC1=O [Example 271, (3R,6R,7R,8E,22S)-6′-Chloro-12,12-dimethyl-7-(2-morpholinoethoxy)-15,15-dioxo-spiro[11,20-dioxa-15-thia-1,14-diazatetracyclo[14.7.2.03,6.019,24]pentacosa-8,16,18,24-tetraene-22,1′-tetralin]-13-one]
< 1 | < 1000 | CC1(C)OC/C=C/[C@@H](OCCN2CCCC2)[C@@H]2CC[C@H]2CN2C[C@@]3(CCCc4cc(Cl)ccc43)COc3ccc(cc32)S(=O)(=O)NC1=O [Example 274, (3R,6R,7R,8E,22S)-6′-Chloro-12,12-dimethyl-15,15-dioxo-7-(2-pyrrolidin-1-ylethoxy)spiro[11,20-dioxa-15-thia-1,14-diazatetracyclo[14.7.2.03,6.019,24]pentacosa-8,16,18,24-tetraene-22,1′-tetralin]-13-one]
